Data reported in PubChem BioAssay (NCI).
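Dose response: 5 concentrations. Exposure: 48 h. Format: 96-well plates. Endpoint: linear interpolation; highest concentration if not reached. The concentration for 50% growth inhibition is given as GI50. TGI: concentration producing complete growth inhibition.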

What was measured:
Assay in all cases: NCI anticancer screen, dose series, 48 h
A549 NSCLC = tested on: A549 NSCLC
M14 melanoma = tested on: M14 melanoma
SK-OV-3 ovarian = tested on: SK-OV-3 ovarian
CAKI-1 renal = tested on: CAKI-1 renal
K-562 leukemia = tested on: K-562 leukemia
UACC-257 melanoma = tested on: UACC-257 melanoma
SK-MEL-2 melanoma = tested on: SK-MEL-2 melanoma
NCI-H226 lung = tested on: NCI-H226 lung
A498 renal = tested on: A498 renal
SN12C renal = tested on: SN12C renal
EKVX NSCLC = tested on: EKVX NSCLC
TK-10 renal = tested on: TK-10 renal
LOX IMVI melanoma = tested on: LOX IMVI melanoma
UO-31 renal = tested on: UO-31 renal
UACC-62 melanoma = tested on: UACC-62 melanoma
SNB-75 CNS = tested on: SNB-75 CNS
MDA-MB-231 breast = tested on: MDA-MB-231 breast
OVCAR-4 ovarian = tested on: OVCAR-4 ovarian
NCI/ADR-RES ovarian = tested on: NCI/ADR-RES ovarian
SR leukemia = tested on: SR leukemia
KM12 colon = tested on: KM12 colon
COLO 205 colon = tested on: COLO 205 colon
MDA-MB-435 = tested on: MDA-MB-435
MCF7 breast = tested on: MCF7 breast
IGROV1 ovarian = tested on: IGROV1 ovarian
HL-60(TB) leukemia = tested on: HL-60(TB) leukemia
SF-295 CNS = tested on: SF-295 CNS
HT29 colon = tested on: HT29 colon
SK-MEL-28 melanoma = tested on: SK-MEL-28 melanoma
BT-549 breast = tested on: BT-549 breast
786-0 renal = tested on: 786-0 renal
SW-620 colon = tested on: SW-620 colon
U251 CNS = tested on: U251 CNS
NCI-H460 lung = tested on: NCI-H460 lung
RPMI-8226 leukemia = tested on: RPMI-8226 leukemia
MOLT-4 leukemia = tested on: MOLT-4 leukemia
NCI-H522 lung = tested on: NCI-H522 lung
HCT-15 colon = tested on: HCT-15 colon
SF-539 CNS = tested on: SF-539 CNS
OVCAR-8 ovarian = tested on: OVCAR-8 ovarian
PC-3 prostate = tested on: PC-3 prostate
SF-268 CNS = tested on: SF-268 CNS
SK-MEL-5 melanoma = tested on: SK-MEL-5 melanoma
OVCAR-5 ovarian = tested on: OVCAR-5 ovarian
SNB-19 CNS = tested on: SNB-19 CNS
HCT-116 colon = tested on: HCT-116 colon
HCC-2998 colon = tested on: HCC-2998 colon
T-47D breast = tested on: T-47D breast
HOP-92 NSCLC = tested on: HOP-92 NSCLC
ACHN renal = tested on: ACHN renal
CCRF-CEM leukemia = tested on: CCRF-CEM leukemia
RXF 393 renal = tested on: RXF 393 renal
DU-145 prostate = tested on: DU-145 prostate
HS 578T breast = tested on: HS 578T breast
HOP-62 NSCLC = tested on: HOP-62 NSCLC
OVCAR-3 ovarian = tested on: OVCAR-3 ovarian
NCI-H23 lung = tested on: NCI-H23 lung
MALME-3M melanoma = tested on: MALME-3M melanoma

**Q.** What does the source list for `Nc1nc(/C=C\c2ccc([N+](=O)[O-])cc2)nc(N2CCN(c3ccccc3)CC2)n1`?
**A.** GI50 (A549 NSCLC): 38.2 µM; TGI (A549 NSCLC): > 100 µM; GI50 (M14 melanoma): 25.6 µM; TGI (M14 melanoma): 62.9 µM; GI50 (SK-OV-3 ovarian): 28.7 µM; TGI (SK-OV-3 ovarian): 77 µM; GI50 (CAKI-1 renal): 22.5 µM; TGI (CAKI-1 renal): 45.8 µM; GI50 (K-562 leukemia): 26.5 µM; TGI (K-562 leukemia): 79.6 µM; GI50 (UACC-257 melanoma): 25.1 µM; TGI (UACC-257 melanoma): 61.5 µM; GI50 (SK-MEL-2 melanoma): 30.2 µM; TGI (SK-MEL-2 melanoma): 81.3 µM; GI50 (NCI-H226 lung): 40.8 µM; TGI (NCI-H226 lung): > 100 µM; GI50 (A498 renal): 37.6 µM; TGI (A498 renal): > 100 µM; GI50 (SN12C renal): 42.3 µM; TGI (SN12C renal): > 100 µM; GI50 (EKVX NSCLC): 43.4 µM; TGI (EKVX NSCLC): > 100 µM; GI50 (TK-10 renal): 20.5 µM; TGI (TK-10 renal): 65 µM; GI50 (LOX IMVI melanoma): 30.2 µM; TGI (LOX IMVI melanoma): > 100 µM; GI50 (UO-31 renal): 27.7 µM; TGI (UO-31 renal): > 100 µM; GI50 (UACC-62 melanoma): 18.9 µM; TGI (UACC-62 melanoma): 43.6 µM; GI50 (SNB-75 CNS): 39.8 µM; TGI (SNB-75 CNS): > 100 µM; GI50 (MDA-MB-231 breast): 20.8 µM; TGI (MDA-MB-231 breast): 58.1 µM; GI50 (OVCAR-4 ovarian): 53.3 µM; TGI (OVCAR-4 ovarian): > 100 µM; GI50 (NCI/ADR-RES ovarian): 25.3 µM; TGI (NCI/ADR-RES ovarian): 77.3 µM; GI50 (SR leukemia): 21.3 µM; TGI (SR leukemia): 60.2 µM; GI50 (KM12 colon): 20.7 µM; TGI (KM12 colon): 53.8 µM; GI50 (COLO 205 colon): 19 µM; TGI (COLO 205 colon): 55.2 µM; GI50 (MDA-MB-435): 20.5 µM; TGI (MDA-MB-435): 41.7 µM; GI50 (MCF7 breast): 34.2 µM; TGI (MCF7 breast): > 100 µM; GI50 (IGROV1 ovarian): 20.1 µM; TGI (IGROV1 ovarian): 54.1 µM; GI50 (HL-60(TB) leukemia): 20 µM; TGI (HL-60(TB) leukemia): 58.9 µM; GI50 (SF-295 CNS): 38.4 µM; TGI (SF-295 CNS): > 100 µM; GI50 (HT29 colon): 35.3 µM; TGI (HT29 colon): > 100 µM; GI50 (SK-MEL-28 melanoma): 41.7 µM; TGI (SK-MEL-28 melanoma): > 100 µM; GI50 (BT-549 breast): 35.7 µM; TGI (BT-549 breast): > 100 µM; GI50 (786-0 renal): 45.8 µM; TGI (786-0 renal): > 100 µM; GI50 (SW-620 colon): 40.4 µM; TGI (SW-620 colon): > 100 µM; GI50 (U251 CNS): 38.2 µM; TGI (U251 CNS): > 100 µM; GI50 (NCI-H460 lung): 35.5 µM; TGI (NCI-H460 lung): > 100 µM; GI50 (RPMI-8226 leukemia): 22.9 µM; TGI (RPMI-8226 leukemia): > 100 µM; GI50 (MOLT-4 leukemia): 27.4 µM; TGI (MOLT-4 leukemia): > 100 µM; GI50 (NCI-H522 lung): 18.4 µM; TGI (NCI-H522 lung): 50.5 µM; GI50 (HCT-15 colon): 25.3 µM; TGI (HCT-15 colon): > 100 µM; GI50 (SF-539 CNS): > 100 µM; TGI (SF-539 CNS): > 100 µM; GI50 (OVCAR-8 ovarian): 29.7 µM; TGI (OVCAR-8 ovarian): > 100 µM; GI50 (PC-3 prostate): 23.7 µM; TGI (PC-3 prostate): 67.6 µM; GI50 (SF-268 CNS): 96.7 µM; TGI (SF-268 CNS): > 100 µM; GI50 (SK-MEL-5 melanoma): 18.2 µM; TGI (SK-MEL-5 melanoma): 33.1 µM; GI50 (OVCAR-5 ovarian): 89 µM; TGI (OVCAR-5 ovarian): > 100 µM; GI50 (SNB-19 CNS): > 100 µM; TGI (SNB-19 CNS): > 100 µM; GI50 (HCT-116 colon): 24.8 µM; TGI (HCT-116 colon): > 100 µM; GI50 (HCC-2998 colon): 41 µM; TGI (HCC-2998 colon): 96.2 µM; GI50 (T-47D breast): 23.1 µM; TGI (T-47D breast): 61 µM; GI50 (HOP-92 NSCLC): 44.2 µM; TGI (HOP-92 NSCLC): > 100 µM; GI50 (ACHN renal): 30.2 µM; TGI (ACHN renal): > 100 µM; GI50 (CCRF-CEM leukemia): 23.2 µM; TGI (CCRF-CEM leukemia): 74.6 µM; GI50 (RXF 393 renal): 29.3 µM; TGI (RXF 393 renal): 93 µM; GI50 (DU-145 prostate): 40 µM; TGI (DU-145 prostate): > 100 µM; GI50 (HS 578T breast): 80 µM; TGI (HS 578T breast): > 100 µM; GI50 (HOP-62 NSCLC): 36.2 µM; TGI (HOP-62 NSCLC): > 100 µM; GI50 (OVCAR-3 ovarian): 26.9 µM; TGI (OVCAR-3 ovarian): 69.6 µM

**Q.** What does the source list for `O=C(O)/C(=C/C(=O)c1ccc(Cl)cc1)NNc1ccc([N+](=O)[O-])cc1[N+](=O)[O-]`?
**A.** TGI (A549 NSCLC): > 100 µM; TGI (M14 melanoma): > 100 µM; TGI (SK-OV-3 ovarian): > 100 µM; TGI (CAKI-1 renal): 46 µM; TGI (K-562 leukemia): > 100 µM; TGI (UACC-257 melanoma): > 100 µM; TGI (SK-MEL-2 melanoma): > 100 µM; TGI (NCI-H226 lung): 69.3 µM; TGI (A498 renal): > 100 µM; TGI (SN12C renal): > 100 µM; TGI (EKVX NSCLC): > 100 µM; TGI (TK-10 renal): > 100 µM; TGI (LOX IMVI melanoma): > 100 µM; TGI (UO-31 renal): 44.2 µM; TGI (UACC-62 melanoma): > 100 µM; TGI (MDA-MB-231 breast): > 100 µM; TGI (OVCAR-4 ovarian): 42 µM; TGI (NCI/ADR-RES ovarian): > 100 µM; TGI (SR leukemia): > 100 µM; TGI (KM12 colon): > 100 µM; TGI (COLO 205 colon): > 100 µM; TGI (MDA-MB-435): > 100 µM; TGI (MCF7 breast): > 100 µM; TGI (IGROV1 ovarian): > 100 µM; TGI (HL-60(TB) leukemia): > 100 µM; TGI (SF-295 CNS): > 100 µM; TGI (HT29 colon): > 100 µM; TGI (SK-MEL-28 melanoma): > 100 µM; TGI (BT-549 breast): 92.5 µM; TGI (786-0 renal): 53.4 µM; TGI (U251 CNS): > 100 µM; TGI (NCI-H460 lung): > 100 µM; TGI (RPMI-8226 leukemia): 96.9 µM; TGI (MOLT-4 leukemia): > 100 µM; TGI (NCI-H522 lung): 46 µM; TGI (HCT-15 colon): > 100 µM; TGI (SF-539 CNS): > 100 µM; TGI (OVCAR-8 ovarian): > 100 µM; TGI (PC-3 prostate): > 100 µM; TGI (SF-268 CNS): > 100 µM; TGI (SK-MEL-5 melanoma): > 100 µM; TGI (OVCAR-5 ovarian): > 100 µM; TGI (SNB-19 CNS): > 100 µM; TGI (NCI-H23 lung): > 100 µM; TGI (HCT-116 colon): 36.3 µM; TGI (MALME-3M melanoma): > 100 µM; TGI (HCC-2998 colon): > 100 µM; TGI (T-47D breast): > 100 µM; TGI (HOP-92 NSCLC): 57.1 µM; TGI (ACHN renal): > 100 µM; TGI (CCRF-CEM leukemia): 70 µM; TGI (DU-145 prostate): > 100 µM; TGI (HS 578T breast): 94.4 µM; TGI (HOP-62 NSCLC): 70 µM; TGI (OVCAR-3 ovarian): 94.8 µM
